Data: patent US20220380370A1 (Goldfinch Bio, Inc., priority 2019, published 2022)
pIC50: −log10 of the molar value.

The molecules below were run against T1, CB1 receptor (Homo sapiens, UniProt P21554) (assay: CB1 cAMP antagonist assay (LANCE Ultra cAMP kit)). Conditions: CHO cells stably expressing the CB1 receptor; forskolin and agonist CP55940 at EC90.
T1 construct: Perkin Elmer (CB1-CHO cells); host or cells: Flp-In CHO cells or CB1-CHO cells, stably expressing
Assay type: cell-based
Description: LANCE Ultra cAMP kit (Perkin Elmer) was used to quantitate the amount of 3′,5′-cyclic adenosine monophosphate (cAMP) produced in Flp-In CHO cells (Invitrogen) stably expressing the CB1 receptor, CB1-CHO cells (Perkin Elmer) stably expressing the CB1 receptor, or CB2-CHO cells (Perkin Elmer) stably expressing the CB2 receptor.
Forskolin was initially titrated to determine the response of the cells. The EC90 of forskolin was used for compound testing. CP55940 was titrated and used with EC90 of forskolin to determine the level of agonist stimulation. EC90 of the agonist was used for subsequent compound testing. For the CB1 assay, Forskolin (Sigma), CP55940 (Cayman Chemicals), and AM251 (MCE) were diluted in 100% DMSO, starting at 100 mM, 1 mM, and 1 mM respectively, in 3-fold serial dilutions. For the CB2 assay, Forskolin (Sigma), CP55940 (Cayman Chemicals), and AM630 (MCE) were diluted in 100% DMSO, starting at 100 mM, 1 mM, and 30 mM respectively, in 3-fold serial dilutions. Test compounds were diluted in 100% DMSO starting from 10 mM, 3-fold dilutions. The cAMP assay buffer contains 1× Hank's Buffered Saline Solution with Ca^2+ and Mg^2+ (Invitrogen), 5.3 mM HEPES (Invitrogen), 0.05% BSA, 0.5 mM IBMX (Sigma). For all assays, cells were harvested, counted, and diluted in cAMP assay buffer to 1×10^5 cells/mL. Only cells with viability >85% were used for the assay. Cells were seeded at 1000 cells/well in 384-well plates and 10 nL/well AM251 (for CB1), AM630 (for CB2) or test compound was added and incubated at 37° C. for 10 min. Then forskolin and agonist were added to reach their EC90 and incubated at 25° C. for 30 min. To detect the amount of cAMP produced, 5 μL of a 100× diluted stock of Eu-cAMP tracer and 5 μL of 200× diluted stock of Ulight-anti-cAMP were added to each well, and the plate incubated at 25° C. for 15 min. The FRET signal was read using an EnVision microplate reader (λex=320 nm, λem=615 nm and 665 nm). The results are expressed as % Inhibition, where % inhibition=100−100×(U−C2)/(C1−C2), where U is the FRET ratio (λem (665 nm)/λem (615 nm)) of sample, C1 is the average of the high controls (signal with no antagonist added), and C2 is the average of low controls (signal with the highest concentration of AM251 or AM630 antagonist). The IC50 is determined by fitting the percentage of inhibition as a function of compound concentrations with the Hill equation, using a 4-parameter fit in either XLfit or GraphPad Prism.

T1 sequence (P21554 whole entry): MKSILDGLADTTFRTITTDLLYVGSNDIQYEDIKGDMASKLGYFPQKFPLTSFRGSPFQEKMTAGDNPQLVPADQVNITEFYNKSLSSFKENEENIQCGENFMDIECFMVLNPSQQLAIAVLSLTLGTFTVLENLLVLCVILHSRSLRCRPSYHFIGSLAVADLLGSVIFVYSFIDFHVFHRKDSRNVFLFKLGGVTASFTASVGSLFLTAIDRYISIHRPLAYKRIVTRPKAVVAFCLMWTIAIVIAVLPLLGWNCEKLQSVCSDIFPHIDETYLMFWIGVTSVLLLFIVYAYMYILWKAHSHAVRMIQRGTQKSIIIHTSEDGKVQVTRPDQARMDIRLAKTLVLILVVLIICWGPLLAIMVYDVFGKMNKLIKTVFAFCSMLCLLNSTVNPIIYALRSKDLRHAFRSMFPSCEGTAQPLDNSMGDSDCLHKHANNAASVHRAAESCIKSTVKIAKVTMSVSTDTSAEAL

| Compound | pIC50 |
| --- | --- |
| CC(=O)N1CCC(Cn2c(=O)n(C[C@@H](O)CO)c(=O)c3c2nc(-c2ccccc2Cl)n3-c2ccc(Cl)cc2)CC1 [Compound 130, (R)-3-[(1-acetylpiperidin-4-yl)methyl]-8-(2-chlorophenyl)-7-(4-chlorophenyl)-1-[2,3-dihydroxypropyl]purine-2,6-dione] | 6.00 to 7.00 |
| NC(=O)Cn1c(=O)c2c(nc(-c3ncccc3Cl)n2-c2ccc(Cl)cc2)n(CC2CCS(=O)(=O)CC2)c1=O [Compound 163, 2-[7-(4-chlorophenyl)-8-(3-chloropyridin-2-yl)-3-[(1,1-dioxo-1λ^6-thian-4-yl)methyl]-2,6-dioxopurin-1-yl]acetamide] | 5.30 to 6.00 |
| CC(c1ccc(C(=O)NCCO)cc1)n1c(=O)n(C)c(=O)c2c1nc(-c1ccccc1Cl)n2-c1ccc(Cl)cc1 (stereo in doubt) [Compound 134, 4-[(1R)-1-[8-(2-chlorophenyl)-7-(4-chlorophenyl)-1-methyl-2,6-dioxopurin-3-yl]ethyl]-N-(2-hydroxyethyl)benzamide] | 6.00 to 7.00 |
| CN(CCO)Cc1ccc(Cn2c(=O)n(C)c(=O)c3c2nc(-c2ccccc2Cl)n3-c2ccc(Cl)cc2)cc1 [Compound 120] | 6.00 to 7.00 |
| CC(=O)N1CCC(Cn2c(=O)n(CC(N)=O)c(=O)c3c2nc(-c2ccccc2Cl)n3-c2ccc(Cl)cc2)CC1 [Compound 123, 2-[3-[(1-acetylpiperidin-4-yl)methyl]-8-(2-chlorophenyl)-7-(4-chlorophenyl)-2,6-dioxopurin-1-yl]acetamide] | 6.00 to 7.00 |
| Cn1c(=O)c2c(nc(-c3ccccc3Cl)n2-c2ccc(Cl)cc2)n(CC2CCN(CC(N)=O)CC2)c1=O [Compound 115, 2-(4-[[8-(2-chlorophenyl)-7-(4-chlorophenyl)-1-methyl-2,6-dioxo-2,3,6,7-tetrahydro-1H-purin-3-yl]methyl]piperidin-1-yl)acetamide] | 6.00 to 7.00 |
| Cn1c(=O)c2c(nc(-c3ccccc3Cl)n2-c2ccc(Cl)cc2)n(Cc2ccc(C(=O)O)cc2)c1=O [Compound 111, 4-[[8-(2-chlorophenyl)-7-(4-chlorophenyl)-1-methyl-2,6-dioxo-2,3,6,7-tetrahydro-1H-purin-3-yl]methyl]benzoic acid] | 5.30 to 6.00 |
| COCCOCc1ccc(Cn2c(=O)n(C)c(=O)c3c2nc(-c2ccccc2Cl)n3-c2ccc(Cl)cc2)cc1 [Compound 122, 8-(2-chlorophenyl)-7-(4-chlorophenyl)-3-([4-[(2-methoxyethoxy)methyl]phenyl]methyl)-1-methylpurine-2,6-dione] | > 7.00 |
| NC(=O)Cn1c(=O)c2c(nc(-c3ccccc3Cl)n2-c2ccc(Cl)cc2)n(C2CCOCC2)c1=O [Compound 133] | > 7.00 |
| NC(=O)Cn1c(=O)c2c(nc(-c3ccccc3Cl)n2-c2ccc(Cl)cc2)n(Cc2ccc(CC(O)CO)cc2)c1=O (stereo in doubt) [Compound 148, 2-[8-(2-chlorophenyl)-7-(4-chlorophenyl)-3-([4-[(2R)-2,3-dihydroxypropyl]phenyl]methyl)-2,6-dioxopurin-1-yl]acetamide] | 6.00 to 7.00 |
| CN1CCN(Cc2ccc(Cn3c(=O)n(CC(N)=O)c(=O)c4c3nc(-c3ccccc3Cl)n4-c3ccc(Cl)cc3)cc2)CC1 [Compound 118] | 5.30 to 6.00 |
| NC(=O)Cn1c(=O)c2c(nc(-c3ccccc3Cl)n2-c2ccc(Cl)cc2)n(Cc2ccc(CC3COCCO3)cc2)c1=O (stereo not drawn) [Compound 143] | > 7.00 |
| Cn1c(=O)c2c(nc(-c3ccccc3Cl)n2-c2ccc(Cl)cc2)n(Cc2ccc(C(=O)NCC3(O)CC3)cn2)c1=O [Compound 162] | > 7.00 |
| COC(=O)c1ccc(Cn2c(=O)n(C)c(=O)c3c2nc(-c2ccccc2Cl)n3-c2ccc(Cl)cc2)cc1 [Compound 108] | > 7.00 |
| Cn1c(=O)c2c(nc(-c3ccccc3Cl)n2-c2ccc(Cl)cc2)n(CC2CCN(C[C@H](O)CO)CC2)c1=O [Compound 113, 8-(2-chlorophenyl)-7-(4-chlorophenyl)-3-([1-[(2S)-2,3-dihydroxypropyl]piperidin-4-yl]methyl)-1-methyl-2,3,6,7-tetrahydro-1H-purine-2,6-dione] | ≤ 5.30 |
| C[C@H](c1ccc(S(N)(=O)=O)cn1)n1c(=O)n(C)c(=O)c2c1nc(-c1ccccc1Cl)n2-c1ccc(Cl)cc1 [Compound 180, 6-[(1R)-1-[8-(2-chlorophenyl)-7-(4-chlorophenyl)-1-methyl-2,6-dioxopurin-3-yl]ethyl]pyridine-3-sulfonamide] | > 7.00 |
| CC(C(N)=O)n1c(=O)c2c(nc(-c3ccccc3Cl)n2-c2ccc(Cl)cc2)n(C2CCOCC2)c1=O (stereo in doubt) [Compound 138, (2R)-2-[8-(2-chlorophenyl)-7-(4-chlorophenyl)-3-(oxan-4-yl)-2,6-dioxopurin-1-yl]propanamide] | 6.00 to 7.00 |
| CN(CCO)C(=O)c1ccc(Cn2c(=O)n(C)c(=O)c3c2nc(-c2ccccc2Cl)n3-c2ccc(Cl)cc2)cc1 [Compound 126] | 6.00 to 7.00 |

Further lines, results first:

| pIC50 | Compound |
| --- | --- |
| > 7.00 | CS(=O)(=O)N1CCC(Cn2c(=O)n(CC(N)=O)c(=O)c3c2nc(-c2ccccc2Cl)n3-c2ccc(Cl)cc2)CC1 [Compound 158] |
| > 7.00 | NC(=O)Cn1c(=O)c2c(nc(-c3ccccc3Cl)n2-c2ccc(Cl)cc2)n(Cc2ccc([C@@H]3COCCO3)cc2)c1=O [Compound 145, 2-[8-(2-chlorophenyl)-7-(4-chlorophenyl)-3-([4-[(2R)-1,4-dioxan-2-yl]phenyl]methyl)-2,6-dioxopurin-1-yl]acetamide] |
| > 7.00 | Cn1c(=O)c2c(nc(-c3ccccc3Cl)n2-c2ccc(Cl)cc2)n(Cc2ccc(C(=O)NC3CCOC3)cn2)c1=O (stereo not drawn) [Compound 167] |
| > 7.00 | Cn1c(=O)c2c(nc(-c3ccccc3Cl)n2-c2ccc(Cl)cc2)n(Cc2ccc(Cl)cc2)c1=O [Compound 109, 8-(2-chlorophenyl)-7-(4-chlorophenyl)-3-[(4-chlorophenyl)methyl]-1-methyl-2,3,6,7-tetrahydro-1H-purine-2,6-dione] |
| > 7.00 | CC(C(N)=O)n1c(=O)c2c(nc(-c3ccccc3Cl)n2-c2ccc(Cl)cc2)n(CC2CCOCC2)c1=O (stereo in doubt) [Compound 140, (2S)-2-[8-(2-chlorophenyl)-7-(4-chlorophenyl)-3-(oxan-4-ylmethyl)-2,6-dioxopurin-1-yl]propanamide] |
| > 7.00 | CC(C(N)=O)n1c(=O)c2c(nc(-c3ccccc3Cl)n2-c2ccc(Cl)cc2)n(CC2CCS(=O)(=O)CC2)c1=O (stereo in doubt) [Compound 142, (2S)-2-[8-(2-chlorophenyl)-7-(4-chlorophenyl)-3-[(1,1-dioxo-1 lambda6-thian-4-yl)methyl]-2,6-dioxopurin-1-yl]propanamide] |
| > 7.00 | C[C@H](Cn1c(=O)c2c(nc(-c3ccccc3Cl)n2-c2ccc(Cl)cc2)n(CC2CCS(=O)(=O)CC2)c1=O)C(N)=O [Compound 175] |
| > 7.00 | CS(=O)(=O)c1ccc(Cn2c(=O)n(CC(N)=O)c(=O)c3c2nc(-c2ccccc2Cl)n3-c2ccc(Cl)cc2)cc1 [Compound 155, 2-[8-(2-chlorophenyl)-7-(4-chlorophenyl)-3-[(4-methanesulfonylphenyl)methyl]-2,6-dioxopurin-1-yl]acetamide] |
| > 7.00 | CC(=O)N1CCC(Cn2c(=O)n(C)c(=O)c3c2nc(-c2ccccc2Cl)n3-c2ccc(Cl)cc2)CC1 [Compound 107, 3-[(1-acetylpiperidin-4-yl)methyl]-8-(2-chlorophenyl)-7-(4-chlorophenyl)-1-methylpurine-2,6-dione] |
| > 7.00 | Cn1c(=O)c2c(nc(-c3ccccc3Cl)n2-c2ccc(Cl)cc2)n(CC2CCCCC2)c1=O [Compound 110, 8-(2-chlorophenyl)-7-(4-chlorophenyl)-3-(cyclohexylmethyl)-1-methyl-2,3,6,7-tetrahydro-1H-purine-2,6-dione] |
| > 7.00 | NC(=O)Cn1c(=O)c2c(nc(-c3ccccc3Cl)n2-c2ccc(Cl)cc2)n(Cc2ccc([C@H]3COCCO3)cc2)c1=O [Compound 141, 2-[8-(2-chlorophenyl)-7-(4-chlorophenyl)-3-([4-[(2S)-1,4-dioxan-2-yl]phenyl]methyl)-2,6-dioxopurin-1-yl]acetamide] |
| > 7.00 | C[C@H](CO)NC(=O)c1ccc(Cn2c(=O)n(C)c(=O)c3c2nc(-c2ccccc2Cl)n3-c2ccc(Cl)cc2)nc1 [Compound 161] |
